Reference: US11576916B2, “Methods of preventing or treating ophthalmic diseases” (KINARUS AG, priority 2017, dated 2023)
Structures can show the parent of a compound that is named as a salt.

What was measured:
[1] = tested on: choroidal neovascularization (CNV) in a mouse model of age-related macular degeneration; assay: Laser-induced CNV mouse model of AMD: retinal thickness by SD-OCT; type: in vivo, C57BL/6J mice; conditions: after 14 days of treatment; for CNV area retinal thickness, comparison between treatments (in words): versus vehicle, single agents or positive control aflibercept; for Difference in retinal thickness in CNV area as compared to the total retinal thickness: mean ± SD per lesion, vehicle 19.9 ± 20.7; for Difference in retinal thickness in CNV area as compared to the total retinal thickness / Total retinal thickness: SD-OCT, pioglitazone/pamapimod oral once daily, aflibercept 80 μg IVT per eye; for Total retinal thickness: mean ± SD
Protocol: (§1) CNV (choroidal neovascularization) in mice or rats is an accepted model to mimic the wet form of age-related macular degeneration (AMD). The model is induced by laser photocoagulation which creates breaks in Bruchs membrane. The subsequent pathological cascade includes inflammation, angiogenesis and proteolysis.
(§2) A study in a mouse model was performed to evaluate the efficacy of pioglitazone and pamapimod each alone or in combination on the development of CNV. Three laser burns were used to induce CNV in the eyes of C57Bl/6J mice. Pioglitazone or pamapimod or the combination of pioglitazone/pamapimod were administered orally once daily to groups of animals starting one day prior to lasering.
(§3) Male 7-week old C57BL/6J mice (Janvier Labs, France) were obtained and housed at a constant temperature (22±+1° C.) in a light-controlled environment with ad libitum access to food and water.
(§4) For CNV induction, animals were anesthetized with an intraperitoneal injection of ketamine (37.5 mg/kg; Ketalar, Pfizer Oy Animal Health, Helsinki, Finland) and medetomidine (0.45 mg/kg; Domitor, Orion Oy, Espoo, Finland). A drop of 0.5% tropicamid (Santen) was applied on the cornea to dilate the pupils. Laser photocoagulation was performed once using a 532 nm diode laser Lumenis Novus Spectra (Lumenis Ltd., Israel) attached to a slit lamp. A coverslip and Viscotears® gel (Novartis) were used to applanate the cornea. Three laser lesions were performed per eye. Following lasering, anesthesia was reversed by u2-antagonist medetomidine, atipamezole (0.5 mg/kg i.p., Antisedan, Orion Pharma, Espoo, Finland).
(§5) Oral drug formulations were prepared in a vehicle adjusted to 4.8±0.05 using buffer. Test compounds [pioglitazone HCl (2.5 mg/ml), pamapimod (10 mg/ml) and combination pioglitazone HCl (2.5 mg/ml)+pamapimod (10 mg/ml)] were formulated in this vehicle and sonicated prior to administration (approx. 3 min).
Aflibercept (Eylea®, Bayer Pharma AG) was purchased as a ready-to-use solution for intravitreal injections at a concentration of 40 mg of aflibercept in 1 ml solution. The dose of 80 μg (injection volume of 2 μl) of aflibercept per mouse eye was used in the present study.
Compounds were administered either orally by gastric lavage (pioglitazone, pamapimod) at a dose of 0.2 ml volume per 20 g mouse weight or by IVT (aflibercept) using a 5 μl glass microsyringe (Hamilton Bonaduz AG, Bonaduz, Switzerland). Aflibercept was injected only into the lasered right eye. The injection volume was 2 μl per eye.
CNV lesions were monitored using Envisu R2200 SD-OCT (Spectral Domain Optical Coherence Tomography system; Bioptigen Inc./Leica) in anesthetized mice as described above. The thickness of each retina was measured from 24 sites of randomly overlaid grid and at all three lasered sites. The total retinal thickness was considered as the thickness of all layers from nerve fiber layer to RPE (healthy measurement sites) or to an implied line connecting the RPE around the site of damage (lasered sites).
Quantitative data was graphed and analyzed using GraphPad Prism software (v. 7.0, GraphPad Software Inc.). The D'Agostino & Pearson normality test was used for each parameter. […] Differences were considered to be statistically significant at the P<0.05 level.

[2] = tested on: choroidal neovascularization (CNV) in a mouse model of age-related macular degeneration; assay: Laser-induced CNV mouse model of AMD: isolectin B4 staining of choroidal flat-mounts (CNV lesion area); type: in vivo, C57BL/6J mice; conditions: for Formation of CNV in mice, in words: conclusion of the study, versus vehicle
Protocol: as §1, §2, §3, §4, §5
Aflibercept (Eylea®, Bayer Pharma AG) was purchased as a ready-to-use solution for intravitreal injections at a concentration of 40 mg of aflibercept in 1 ml solution. The dose of 80 μg (injection volume of 2 μl) of aflibercept per mouse eye was used in the present study. […]
The flat-mount choroids were stained with fluorescein-labeled isolectin B4 (Vector Laboratories) to detect lesion CNV area and imaged using Leica DM IRBE microscope (Leica Microsystems, Germany) with an epifluorescent attachment and analyzed using Image J software (v.1.51f, National Institutes of Health, USA).
Quantitative data was graphed and analyzed using GraphPad Prism software (v. 7.0, GraphPad Software Inc.). […]

| Molecule | CNV area retinal thickness, comparison between treatments (in words) [1] | Difference in retinal thickness in CNV area as compared to the total retinal thickness ([1]; HCl) [%] | Difference in retinal thickness in CNV area as compared to the total retinal thickness ([1]; listed as pioglitazone, HCl) [%] | Total retinal thickness [1] [μm] | Formation of CNV in mice, in words [2] | Difference in retinal thickness in CNV area as compared to the total retinal thickness [1] [%] | Difference in retinal thickness in CNV area as compared to the total retinal thickness ([1]; listed as pamapimod) [%] | Isolectin B4 positive area per CNV lesion (new vessel area), in words ([2]; choroidal flat-mounts, after 14 days of treatment, Kruskal-Wallis test with Dunn's multiple comparisons) |
| --- | --- | --- | --- | --- | --- | --- | --- | --- |
| CCc1ccc(CCOc2ccc(CC3SC(=O)NC3=O)cc2)nc1 (centres unmarked) [STR001, pioglitazone HCl, reference compound] | superior to the positive control Aflibercept | 9.86 ± 17.7 | 9.86±17.7 | 215.8 ± 2.9 | significantly decreased |  |  |  |
| Cn1c(=O)c(Oc2ccc(F)cc2F)cc2cnc(NC(CCO)CCO)nc21 [STR002, 6-(2,4-Difluorophenoxy)-2-[3-hydroxy-1-(2-hydroxyethyl)-propylamino]-8-methyl-8H-pyrido[2,3-d]pyrimidin-7-one] | superior to the positive control Aflibercept |  |  | 216.2 ± 6.0 | significantly decreased | 7.75 ± 22.4 | 7.75±22.4 | significantly different from the pioglitazone alone group |
| Aflibercept: Aflibercept (Eylea®, Bayer Pharma AG), ready-to-use solution for intravitreal injections; positive control |  |  |  | 215.7 ± 6.5 | significantly decreased | 16.1±26.7 |  |  |
